# Assay results reported in patent US12220412B2, “Methods for administering corticosteroids” (Sparrow Pharmaceuticals, Inc., priority 2018, dated 2025).
# Columns and labels:
# Type in all cases: in vivo
# Set-up in all cases: from tissue; host or cells: in vivo, human subjects
# HSD-1 [1] = biological target: T1, HSD-1 (Homo sapiens, UniProt P28845); assay: Urinary (tetrahydrocortisol+allotetrahydrocortisol)/tetrahydrocortisone ratio as indicator of HSD-1 activity in clinical trial subjects; settings: for HSD-1 ratio (tetrahydrocortisol [5α + 5β]/tetrahydrocortisone), Day 1 Median / HSD-1 ratio (tetrahydrocortisol [5α + 5β]/tetrahydrocortisone), Day 1 mean: Day 1 single dose; for HSD-1 ratio (tetrahydrocortisol [5α + 5β]/tetrahydrocortisone), Day 1 Median / HSD-1 ratio (tetrahydrocortisol [5α + 5β]/tetrahydrocortisone), Day 1 mean / HSD-1 ratio (tetrahydrocortisol [5α + 5β]/tetrahydrocortisone), Day 18 Mean / HSD-1 ratio (tetrahydrocortisol [5α + 5β]/tetrahydrocortisone), Day 18 Median: 24 h urine; for HSD-1 ratio (tetrahydrocortisol [5α + 5β]/tetrahydrocortisone), Day 18 Mean / HSD-1 ratio (tetrahydrocortisol [5α + 5β]/tetrahydrocortisone), Day 18 Median: Day 18 after daily doses Days 5 through 18
# Protocol: Following a minimum of a 10-hour fast, healthy adult racially diverse male and female subjects were administered Compound A (ASP3662) or placebo for Compound A with 240 mL of room temperature water. Subjects continued to fast from any food and drinks (water was allowed as desired except for 1 hour before and 1 hour after study drug administration) until 4 hours after study drug administration. Urine samples were collected for the measurement of cortisol, cortisone, tetrahydrocortisol (5α, 5β) and tetrahydrocortisone. The cumulative amount of each entity excreted in the urine was calculated for each subject from time zero to 24 hours after dosing (Ae24), from 24 hours after dosing to 48 hours after dosing (Ae48), and Aelast.
# The ratio of 5α-tetrahydrocortisol+5β-tetrahydrocortisol to urinary tetrahydrocortisone was used as an indicator of HSD-1 activity. Compound A decreased the 5α-tetrahydrocortisol+5β-tetrahydrocortisol to urinary tetrahydrocortisone ratio with increasing dose compared to placebo, resulting in approximately 80% inhibition at 6 mg. […]
# HSD-1 [2] = biological target: T1, HSD-1; assay: Brain HSD-1 occupancy by PET with [11C]AS2471907 after single dose; settings: for HSD-1 occupancy: single dose 3 mg
# Protocol: The level and time course of HSD-1 occupancy following single dose administration of Compound A were assessed in healthy male subjects by positron emission tomography (PET). For each PET scan, [11C]AS2471907 was administered by an intravenous infusion pump, followed by up to 120 minutes of dynamic PET data acquisition. Most subjects underwent two PET scans.
# HSD-1 [3] = biological target: T1, HSD-1; assay: Direct sigmoidal Emax model of plasma concentration vs brain HSD-1 occupancy (ROIswa); settings: brain HSD-1 occupancy (ROIswa) vs plasma concentration
# Protocol: Simulations of brain enzyme occupancy were conducted for several dosing schemes for Compound A that involved both an initial dose and a maintenance dose.
# The relationship of Compound A plasma concentrations to region of interest size weighted average (ROIswa) HSD-1 occupancy in brain was best described by a direct sigmoidal Emax model (FIG. 5).
# [4] = healthy adult non-Japanese subjects, 20 mg
# [5] = healthy adult non-Japanese subjects, 50 mg
# T1 sequence (P28845 whole entry): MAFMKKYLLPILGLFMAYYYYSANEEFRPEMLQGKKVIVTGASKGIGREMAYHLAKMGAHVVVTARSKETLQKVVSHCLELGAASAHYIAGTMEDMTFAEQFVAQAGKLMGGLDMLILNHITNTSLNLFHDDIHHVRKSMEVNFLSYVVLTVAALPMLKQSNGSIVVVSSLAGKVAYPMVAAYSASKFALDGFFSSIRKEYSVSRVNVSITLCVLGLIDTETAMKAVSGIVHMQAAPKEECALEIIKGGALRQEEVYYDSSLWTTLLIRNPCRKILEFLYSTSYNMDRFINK
compound,measurement,setting,value
Cn1c(-c2ccc(C(N)=O)cc2F)nnc1C(C)(C)Oc1c(F)cc(Cl)cc1F [Compound A],"HSD-1 ratio (tetrahydrocortisol [5α + 5β]/tetrahydrocortisone), Day 1 Median",HSD-1 [1]; [4],0.16
same,"HSD-1 ratio (tetrahydrocortisol [5α + 5β]/tetrahydrocortisone), Day 1 mean",HSD-1 [1]; [4],0.17
same,"HSD-1 ratio (tetrahydrocortisol [5α + 5β]/tetrahydrocortisone), Day 18 Mean",HSD-1 [1]; [4],0.12
same,"HSD-1 ratio (tetrahydrocortisol [5α + 5β]/tetrahydrocortisone), Day 18 Median",HSD-1 [1]; [4],0.12
same,"HSD-1 ratio (tetrahydrocortisol [5α + 5β]/tetrahydrocortisone), Day 1 Median",HSD-1 [1]; [5],0.16
same,"HSD-1 ratio (tetrahydrocortisol [5α + 5β]/tetrahydrocortisone), Day 1 mean",HSD-1 [1]; [5],0.16
same,"HSD-1 ratio (tetrahydrocortisol [5α + 5β]/tetrahydrocortisone), Day 18 Mean",HSD-1 [1]; [5],0.11
same,"HSD-1 ratio (tetrahydrocortisol [5α + 5β]/tetrahydrocortisone), Day 18 Median",HSD-1 [1]; [5],0.10
same,mean HSD-1 ratio (significantly decreased HSD-1 activity),"HSD-1 [1]; healthy adult non-Japanese subjects, doses of 20 mg and 50 mg, both days 1 and 18",approximately 0.1
same,inhibition (decrease of 5α-tetrahydrocortisol+5β-tetrahydrocortisol to urinary tetrahydrocortisone ratio compared to placebo),"HSD-1 [1]; healthy adult subjects, fasted, single dose 6 mg",approximately 80%
same,level of inhibition of urinary HSD-1 ratio on increasing the dose,"HSD-1 [1]; healthy adult subjects, fasted, single dose above 6 mg",did not substantially increase the level of inhibition
same,"Occupancy (ROIswa), PET Scan 1","HSD-1 [2]; Subject A, 30 mg single dose, 2.62 hrs post dose",99.68%
same,"Occupancy (ROIswa), PET Scan 2","HSD-1 [2]; Subject A, 30 mg single dose, 23.75 hrs post dose",99.71%
same,"Occupancy (ROIswa), PET Scan 1","HSD-1 [2]; Subject B, 30 mg single dose, 27.43 hrs post dose",99.97%
same,"Occupancy (ROIswa), PET Scan 2","HSD-1 [2]; Subject B, 30 mg single dose, 46.75 hrs post dose",98.83%
same,"Occupancy (ROIswa), PET Scan 1","HSD-1 [2]; Subject C, 6 mg single dose, 3.25 hrs post dose",99.73%
same,"Occupancy (ROIswa), PET Scan 2","HSD-1 [2]; Subject C, 6 mg single dose, 23.74 hrs post dose",96.20%
same,"Occupancy (ROIswa), PET Scan 1","HSD-1 [2]; Subject D, 3 mg single dose, 3.27 hrs post dose",89.91%
same,"Occupancy (ROIswa), PET Scan 2","HSD-1 [2]; Subject D, 3 mg single dose, 45.25 hrs post dose",83.15%
same,"Occupancy (ROIswa), PET Scan 1","HSD-1 [2]; Subject E, 3 mg single dose, 19.2 hrs post dose",88.16%
same,"Occupancy (ROIswa), PET Scan 2","HSD-1 [2]; Subject E, 3 mg single dose, 25.43 hrs post dose",83.85%
same,"Occupancy (ROIswa), PET Scan 1","HSD-1 [2]; Subject F, 3 mg single dose, 42.19 hrs post dose",58.87%
same,"Occupancy (ROIswa), PET Scan 2","HSD-1 [2]; Subject F, 3 mg single dose, 138.67 hrs post dose",45.49%
same,"Occupancy (ROIswa), PET Scan 1","HSD-1 [2]; Subject G, 3 mg single dose, 42.46 hrs post dose",70.96%
same,"Occupancy (ROIswa), PET Scan 2","HSD-1 [2]; Subject G, 3 mg single dose, 189.15 hrs post dose",25.61%
same,"Occupancy (ROIswa), PET Scan 1","HSD-1 [2]; Subject H, 3 mg single dose, 43.85 hrs post dose",56.39%
same,"Occupancy (ROIswa), PET Scan 2","HSD-1 [2]; Subject H, 3 mg single dose, 139.36 hrs post dose",36.31%
same,"Occupancy (ROIswa), PET Scan 1","HSD-1 [2]; Subject I, 3 mg single dose, 46.24 hrs post dose",60.92%
same,"Occupancy (ROIswa), PET Scan 1","HSD-1 [2]; Subject J, 2 mg single dose, 2.84 hrs post dose",<0%
same,"Occupancy (ROIswa), PET Scan 1","HSD-1 [2]; Subject K, 1 mg single dose, 3.24 hrs post dose",<0%
same,"Occupancy (ROIswa), PET Scan 2","HSD-1 [2]; Subject K, 1 mg single dose, 20.66 hrs post dose",<0%
same,"Occupancy (ROIswa), PET Scan 1","HSD-1 [2]; Subject L, 1 mg single dose, 22.55 hrs post dose",<0%
same,"Occupancy (ROIswa), PET Scan 2","HSD-1 [2]; Subject L, 1 mg single dose, 47.95 hrs post dose",<0%
same,enzyme occupancy,HSD-1 [2]; single 2 and 1 mg doses,no enzyme occupancy was detected
same,HSD-1 occupancy,HSD-1 [2]; 19.2-25.43 hours post dose,~86%
same,HSD-1 occupancy,HSD-1 [2]; 42.19-46.24 hours post dose,60-80%
same,HSD-1 occupancy,HSD-1 [2]; 138.67-139.36 hours post dose,~40%
same,HSD-1 occupancy,HSD-1 [2]; 3.25 hours post dose,~90%
same,HSD-1 occupancy,HSD-1 [2]; 189.15 hours post dose,26%
same,region of interest size weighted average (ROIswa) HSD-1 occupancy,"HSD-1 [2]; single doses of 30 and 6 mg, scan times 2.62 to 46.75 hours post dose",> 96%
same,"Hill coefficient, estimate",HSD-1 [3],1.53
same,"Maximum effect, Emax (% HSD-1 occupancy), estimate",HSD-1 [3],97.6%
same,EC50,"HSD-1 [3]; read-out: Plasma concentration when half Emax is achieved, EC50, estimate (converted)",240 pM
